Results as given in paper PMC7565067, “Identification and Target-Modification of SL-BBI: A Novel Bowman–Birk Type Trypsin Inhibitor from Sylvirana latouchii” (Biomolecules, 2020).
Where a SMILES comes first, the peptide text is derived from it. Bridges are numbered along the chain shown (N, C = ends).

Key:
[1] = tested on: Staphylococcus aureus (ATCC 12600); assay type: cell-based
Procedure: (§1) Antimicrobial activity of the synthetic peptides was assessed by determination of MIC/MBC on Escherichia coli (ATCC 11775), Staphylococcus aureus (ATCC 12600), Candida albicans (NCYC 1467) and methicillin-resistant Staphylococcus aureus (MRSA) (NCTC 12493) according to the previous report. Briefly, the test microorganism was inoculated in Mueller Hinton Broth (MHB) medium and incubated overnight at 37 °C. Then the subculture was performed until the optical density (OD) reached the logarithmic growth phase and diluted to 1 × 10^6 colony forming units (CFU)/mL for bacteria and 1 × 10^5 CFU/mL for fungus obtained. The synthetic peptides with the concentration from 1 to 512 µM were double diluted by PBS. Five replications of sterile control, vehicle control and growth control were set as 100 µL MHB/well, 100 µL 1% PBS with subculture solution/well and 100 µl subculture solution/well, respectively. The 96-well plate was incubated at 37 °C overnight. The absorbance of each well at 550 nm was measured by Synergy HT plate reader (Biotech, Minneapolis, MN, USA). The minimum bactericidal concentration was detected by sub-culturing treated samples onto Mueller-Hinton agar (MHA) plate for another eighteen hours at 37 °C.

[2] = tested on: methicillin-resistant Staphylococcus aureus (MRSA) (NCTC 12493); assay type: cell-based
Procedure: as §1

[3] = tested on: Escherichia coli (ATCC 11775); assay type: cell-based
Procedure: as §1

[4] = tested on: Candida albicans (NCYC 1467); assay type: cell-based
Procedure: as §1

H157 cells = assay type: cell-based, human; settings: 24 h; SD
Procedure: (§2) MTT (3-(4, 5-dimethylthiazol-2-yl)-2, 5-diphenyltetrazolium bromide) cell viability assay was performed to evaluate the cell proliferation inhibitory rate of synthetic peptides in a series of human cell lines: PC-3 (ATCC® CRL-1435™), H157 (RRID: CVCL_0463), H460 (ATCC® HTB-177™), H838 (ATCC® CRL-5844™), H23 (ATCC® CRL-5800™), MCF-7 (ATCC® HTB-22™), HCT116 (ATCC® CCL-247™), U251MG (ECACC-09063001) and HMEC-1 (ATCC® CRL-3243™) which was detailed in the previous report.

H838 cells = assay type: cell-based, human; settings: 24 h; SD
Procedure: as §2

H23 cells = assay type: cell-based, human; settings: 24 h; SD
Procedure: as §2

PC-3 cells = assay type: cell-based, human; settings: 24 h; SD
Procedure: as §2

HMEC-1 cells = assay type: cell-based, human; settings: 24 h; SD
Procedure: as §2

MCF-7 cells = assay type: cell-based, human; settings: 24 h; SD
Procedure: as §2

H460 cells = assay type: cell-based, human; settings: 24 h; SD
Procedure: as §2

chymotrypsin = chymotrypsin (Bos taurus, UniProt P00766); test: biochemical
Procedure: Ten microliters of trypsin/chymotrypsin (Sigma Aldrich, Dorset, UK) working solution (0.1 µM in 1 mM HCl) was added into the wells of a black micro-titre plate with corresponding substrate and peptide replicates (0.1–100 µM) in 10 mM phosphate buffer (final volume 210 μL). Additionally, Phe-Pro-Arg- NHMec (Bachem, Cambridge, UK) and Succinyl-Ala-Ala-Pro-Phe-NHMec (Bachem, Cambridge, UK) were performed as substrates for trypsin and chymotrypsin, respectively. The fluorescence intensity of NHMec was monitored at 37 °C continuously for 30 min by a FLUOstar OPTIMA multi-well plate reader (BMG Labtech, Ortenberg, Germany) at wavelengths of 460 nm for emission and 395 nm for excitation.

Row | MIC, MRSA [2] [µM] | Structure (SMILES) | MBC, S. aureus [1] | MIC, S. aureus [1] [µM] | MBC, MRSA [2] [µM] | MBC, E. coli [3] | MBC, C. albicans [4] | MIC, C. albicans [4] [µM] | MIC, E. coli [3] [µM] | IC50 (H157 cells) [µM] | IC50 (H838 cells) [µM] | IC50 (H23 cells) [µM] | IC50 (PC-3 cells) [µM] | IC50 (HMEC-1 cells) [µM] | IC50 (MCF-7 cells) [µM] | IC50 (H460 cells) [µM] | Ki (chymotrypsin) [µM]
1 | >512 | CC(C)C[C@H](NC(=O)[C@@H]1CSSC[C@H](NC(=O)CNC(=O)[C@H](CCCNC(=N)N)NC(=O)[C@H](CC(C)C)NC(=O)[C@H](C)NC(=O)[C@@H](N)CO)C(=O)N[C@@H](Cc2c[nH]c3ccccc23)C(=O)N[C@@H]([C@@H](C)O)C(=O)N[C@@H](CCCCN)C(=O)N[C@@H](CO)C(=O)N[C@@H](Cc2ccc(O)cc2)C(=O)N2CCC[C@H]2C(=O)N2CCC[C@H]2C(=O)N[C@@H](CCCCN)C(=O)N2CCC[C@H]2C(=O)N1)C(N)=O [SL-BBI] (H-SALRGCWTKSYPPKPCL-NH2; disulfide 6-16) | 256 µM | 256 | >512 | 128/128 μM | 256 µM | 256 | – | – | – | – | – | – | – | – | –
2 | >512 | CC[C@H](C)[C@@H]1NC(=O)[C@H](CO)NC(=O)[C@H](CCCCN)NC(=O)[C@H]([C@@H](C)O)NC(=O)[C@H](Cc2c[nH]c3ccccc23)NC(=O)[C@@H](NC(=O)CNC(=O)[C@H](CCCNC(=N)N)NC(=O)[C@H](CC(C)C)NC(=O)[C@H](C)NC(=O)[C@H](C)N)CSSC[C@@H](C(=O)N[C@@H](CCCCN)C(N)=O)NC(=O)[C@@H]2CCCN2C(=O)[C@H](CCCCN)NC(=O)[C@@H]2CCCN2C(=O)[C@@H]2CCCN2C1=O [K-SL] (H-AALRGCWTKSIPPKPCK-NH2; disulfide 6-16) | 64/64 μM | – | >512 | 128/128 μM | 64/64 μM | – | – | – | – | – | – | – | – | – | –

Row | Structure (SMILES) | MIC, MRSA [2] [µM] | MBC, S. aureus [1] | MIC, S. aureus [1] [µM] | MBC, MRSA [2] [µM] | MBC, E. coli [3] | MBC, C. albicans [4] | MIC, C. albicans [4] [µM] | MIC, E. coli [3] [µM] | IC50 (H157 cells) [µM] | IC50 (H838 cells) [µM] | IC50 (H23 cells) [µM] | IC50 (PC-3 cells) [µM] | IC50 (HMEC-1 cells) [µM] | IC50 (MCF-7 cells) [µM] | IC50 (H460 cells) [µM] | Ki (chymotrypsin) [µM]
3 | CC[C@H](C)[C@@H]1NC(=O)[C@H](CO)NC(=O)[C@H](Cc2ccccc2)NC(=O)[C@H]([C@@H](C)O)NC(=O)[C@H](Cc2c[nH]c3ccccc23)NC(=O)[C@@H](NC(=O)CNC(=O)[C@H](CCCNC(=N)N)NC(=O)[C@H](CC(C)C)NC(=O)[C@H](C)NC(=O)[C@@H](N)CO)CSSC[C@@H](C(=O)N[C@@H](CC(C)C)C(N)=O)NC(=O)[C@@H]2CCCN2C(=O)[C@H](CCCCN)NC(=O)[C@@H]2CCCN2C(=O)[C@@H]2CCCN2C1=O [F-SL] (H-SALRGCWTFSIPPKPCL-NH2; disulfide 6-16) | >512 | >512 µM | >512 | >512 | >512 µM | >512 µM | >512 | >512 | 101 ± 1.74 | 59.7 ± 2.72 | 79.1 ± 6.41 | 159 ± 6.44 | 574 ± 9.41 | 202 ± 10.6 | 66 ± 2.64 | 0.309
